Earlier results, collected in patent US10208167B2, “Cyclodextrins with one or more poly(ethylene glycol) units, inclusion compounds and drug delivery vehicles including the same, and methods of making and using the same” (The Board of Trustees of the California State University, priority 2015, dated 2019).

Legend:
[1] = system: human salivary and pancreatic amylases

Structure (SMILES) | hydrolysis by human salivary and pancreatic amylases [1] | fermentation in the intestinal microflora (intestinal microflora)
OC[C@H]1O[C@@H]2O[C@H]3[C@H](O)[C@@H](O)[C@@H](O[C@H]4[C@H](O)[C@@H](O)[C@@H](O[C@H]5[C@H](O)[C@@H](O)[C@@H](O[C@H]6[C@H](O)[C@@H](O)[C@@H](O[C@H]7[C@H](O)[C@@H](O)[C@@H](O[C@H]1[C@H](O)[C@H]2O)O[C@@H]7CO)O[C@@H]6CO)O[C@@H]5CO)O[C@@H]4CO)O[C@@H]3CO [α-CD, α-cyclodextrin] | not hydrolyzed | can be fermented
OC[C@H]1O[C@@H]2O[C@H]3[C@H](O)[C@@H](O)[C@@H](O[C@H]4[C@H](O)[C@@H](O)[C@@H](O[C@H]5[C@H](O)[C@@H](O)[C@@H](O[C@H]6[C@H](O)[C@@H](O)[C@@H](O[C@H]7[C@H](O)[C@@H](O)[C@@H](O[C@H]8[C@H](O)[C@@H](O)[C@@H](O[C@H]9[C@H](O)[C@@H](O)[C@@H](O[C@H]1[C@H](O)[C@H]2O)O[C@@H]9CO)O[C@@H]8CO)O[C@@H]7CO)O[C@@H]6CO)O[C@@H]5CO)O[C@@H]4CO)O[C@@H]3CO [γ-CD, γ-cyclodextrin] | not hydrolyzed | –
